# Results from US7465729B2, “Methods of treatment of menopause and perimenopause using eszopiclone” (Sepracor Inc., priority 2004, dated 2008).
# Test system: women with insomnia secondary to perimenopause or menopause
# Assay: Clinical study: number of nocturnal awakenings due to hot flashes
# Assay type: in vivo
# Settings: 3 mg nightly, ITT; for Number of Nocturnal Awakenings due to Hot Flashes, Change from Baseline, Least Squares Means (SE) [3]: ANCOVA; for Number of Nocturnal Awakenings due to Hot Flashes, Observed Value, Least Squares Means (SE) [2]: ANOVA
# Procedure: The study was aimed at observing efficacy of eszopiclone 3 mg compared to placebo in the treatment of insomnia secondary to perimenopause or menopause. The study was a multicenter, randomized, double-blind, placebo-controlled, parallel-group study. […] The primary method of analysis compared the post-randomization results between the two treatment groups.
# Subjects were women with insomnia secondary to perimenopause or menopause. Subjects were perimenopausal or menopausal and had insomnia symptoms including ≧45 minutes sleep latency (SL) and total sleep time (TST) ≦6 hours. Perimenopausal/menopausal symptoms predated the onset of sleep disturbance symptoms. The patient population was predominately Caucasian (77.2%). The mean age was 49, with a range of 40-60.
# A total of 410 subjects were randomized. Among them, 201 received 3 mg of eszopiclone (ESZ) nightly (at bedtime) for four weeks and 209 received matching placebo (PBO).
smiles,measurement,setting,value
"CN1CCN(C(=O)O[C@H]2c3nccnc3C(=O)N2c2ccc(Cl)cn2)CC1 [Eszopiclone, (+)6-(5-chloropyrid-2-yl)-5-(4-methylpiperazin-1-yl)carbonyloxy-7-oxo-6,7-dihydro-5H-pyrrolo[3-4-b]pyrazine]","Number of Nocturnal Awakenings due to Hot Flashes, Change from Baseline, Mean (SD)",Week 1,−0.7 (1.0)
same,"Number of Nocturnal Awakenings due to Hot Flashes, Change from Baseline, Median",Week 1,−0.5
same,"Number of Nocturnal Awakenings due to Hot Flashes, Change from Baseline, Minimum",Week 1,−6.0
same,"Number of Nocturnal Awakenings due to Hot Flashes, Observed Value, 25th Percentile",Week 1,0.0
same,"Number of Nocturnal Awakenings due to Hot Flashes, Observed Value, 75th Percentile",Week 1,1.0
same,"Number of Nocturnal Awakenings due to Hot Flashes, Observed Value, Maximum",Week 1,3.0
same,"Number of Nocturnal Awakenings due to Hot Flashes, Observed Value, Mean (SD)",Week 1,0.5 (0.7)
same,"Number of Nocturnal Awakenings due to Hot Flashes, Observed Value, Median",Week 1,0.2
same,"Number of Nocturnal Awakenings due to Hot Flashes, Observed Value, Minimum",Week 1,0.0
same,"Number of Nocturnal Awakenings due to Hot Flashes, Change from Baseline, Least Squares Means (SE) [3]",Week 1,−0.7 (0.1)
same,"Number of Nocturnal Awakenings due to Hot Flashes, Observed Value, Least Squares Means (SE) [2]",Week 1,0.5 (0.1)
same,"Number of Nocturnal Awakenings due to Hot Flashes, Change from Baseline, 25th Percentile",Week 2,−1.0
same,"Number of Nocturnal Awakenings due to Hot Flashes, Change from Baseline, 75th Percentile",Week 2,0.0
same,"Number of Nocturnal Awakenings due to Hot Flashes, Change from Baseline, Maximum",Week 2,2.0
same,"Number of Nocturnal Awakenings due to Hot Flashes, Change from Baseline, Mean (SD)",Week 2,−0.7 (1.0)
same,"Number of Nocturnal Awakenings due to Hot Flashes, Change from Baseline, Median",Week 2,−0.6
same,"Number of Nocturnal Awakenings due to Hot Flashes, Change from Baseline, Minimum",Week 2,−6.0
same,"Number of Nocturnal Awakenings due to Hot Flashes, Observed Value, 25th Percentile",Week 2,0.0
same,"Number of Nocturnal Awakenings due to Hot Flashes, Observed Value, 75th Percentile",Week 2,1.0
same,"Number of Nocturnal Awakenings due to Hot Flashes, Observed Value, Maximum",Week 2,3.0
same,"Number of Nocturnal Awakenings due to Hot Flashes, Observed Value, Mean (SD)",Week 2,0.5 (0.7)
same,"Number of Nocturnal Awakenings due to Hot Flashes, Observed Value, Median",Week 2,0.0
same,"Number of Nocturnal Awakenings due to Hot Flashes, Observed Value, Minimum",Week 2,0.0
same,"Number of Nocturnal Awakenings due to Hot Flashes, Change from Baseline, Least Squares Means (SE) [3]",Week 2,−0.6 (0.1)
same,"Number of Nocturnal Awakenings due to Hot Flashes, Observed Value, Least Squares Means (SE) [2]",Week 2,0.5 (0.1)
same,"Number of Nocturnal Awakenings due to Hot Flashes, Change from Baseline, 25th Percentile",Week 3,−1.0
same,"Number of Nocturnal Awakenings due to Hot Flashes, Change from Baseline, 75th Percentile",Week 3,0.0
same,"Number of Nocturnal Awakenings due to Hot Flashes, Change from Baseline, Maximum",Week 3,1.5
same,"Number of Nocturnal Awakenings due to Hot Flashes, Change from Baseline, Mean (SD)",Week 3,−0.7 (1.1)
same,"Number of Nocturnal Awakenings due to Hot Flashes, Change from Baseline, Median",Week 3,−0.4
same,"Number of Nocturnal Awakenings due to Hot Flashes, Change from Baseline, Minimum",Week 3,−6.0
same,"Number of Nocturnal Awakenings due to Hot Flashes, Observed Value, 25th Percentile",Week 3,0.0
same,"Number of Nocturnal Awakenings due to Hot Flashes, Observed Value, 75th Percentile",Week 3,1.0
same,"Number of Nocturnal Awakenings due to Hot Flashes, Observed Value, Maximum",Week 3,3.0
same,"Number of Nocturnal Awakenings due to Hot Flashes, Observed Value, Mean (SD)",Week 3,0.5 (0.7)
same,"Number of Nocturnal Awakenings due to Hot Flashes, Observed Value, Median",Week 3,0.0
same,"Number of Nocturnal Awakenings due to Hot Flashes, Observed Value, Minimum",Week 3,0.0
same,"Number of Nocturnal Awakenings due to Hot Flashes, Change from Baseline, Least Squares Means (SE) [3]",Week 3,−0.6 (0.1)
same,"Number of Nocturnal Awakenings due to Hot Flashes, Observed Value, Least Squares Means (SE) [2]",Week 3,0.5 (0.1)
same,"Number of Nocturnal Awakenings due to Hot Flashes, Change from Baseline, 25th Percentile",Week 4,−1.3
same,"Number of Nocturnal Awakenings due to Hot Flashes, Change from Baseline, 75th Percentile",Week 4,0.0
same,"Number of Nocturnal Awakenings due to Hot Flashes, Change from Baseline, Maximum",Week 4,2.1
same,"Number of Nocturnal Awakenings due to Hot Flashes, Change from Baseline, Mean (SD)",Week 4,−0.8 (1.2)
same,"Number of Nocturnal Awakenings due to Hot Flashes, Change from Baseline, Median",Week 4,−0.7
same,"Number of Nocturnal Awakenings due to Hot Flashes, Change from Baseline, Minimum",Week 4,−6.0
same,"Number of Nocturnal Awakenings due to Hot Flashes, Observed Value, 25th Percentile",Week 4,0.0
same,"Number of Nocturnal Awakenings due to Hot Flashes, Observed Value, 75th Percentile",Week 4,1.0
same,"Number of Nocturnal Awakenings due to Hot Flashes, Observed Value, Maximum",Week 4,3.6
same,"Number of Nocturnal Awakenings due to Hot Flashes, Observed Value, Mean (SD)",Week 4,0.4 (0.7)
same,"Number of Nocturnal Awakenings due to Hot Flashes, Observed Value, Median",Week 4,0.0
same,"Number of Nocturnal Awakenings due to Hot Flashes, Observed Value, Minimum",Week 4,0.0
same,"Number of Nocturnal Awakenings due to Hot Flashes, Change from Baseline, Least Squares Means (SE) [3]",Week 4,−0.7 (0.1)
same,"Number of Nocturnal Awakenings due to Hot Flashes, Observed Value, Least Squares Means (SE) [2]",Week 4,0.4 (0.1)
